A short description of data set [1]: Measurement of saturated solubility of gemcitabine hydrochloride (HPLC, 272 nm). Type of data set: physicochemical. The note with it: 55 °C, aqueous buffer, thermodynamic from solid, phosphate buffer and water. On the procedure:
0.95 g of disodium hydrogen phosphate dihydrate, 0.15 g of sodium dihydrogen phosphate dihydrate, and 51.1 g of water were put into a 100 mL plastic container and dissolved to produce a buffer containing no sodium chloride.
3.4 g of gemcitabine hydrochloride was put into 5.8 g of this buffer and 8.1 g of water, and the mixture was stirred at 55°C for 2 hours. 5 mL of this supernatant was collected, and the filtrate obtained by filtration was used as a sample solution.
0.95 g of disodium hydrogen phosphate dihydrate, 0.15 g of sodium dihydrogen phosphate dihydrate, 5.4 g of sodium chloride, and 67.7 g of water were put into a 100 mL plastic container and dissolved to produce a buffer containing sodium chloride.
3.4 g of gemcitabine hydrochloride was put into 7.4 g of this buffer and 8.1 g of water, and the mixture was stirred at 55°C for 2 hours. 5 mL of this supernatant was collected, and the filtrate obtained by filtration was used as a sample solution.
This sample solution was quantified by HPLC at a detection wavelength of 272 nm, and the saturated solubility of 90 mg/mL in the presence of sodium chloride was obtained.

Data set [2] can be described thus: Dissolution of gemcitabine hydrochloride in the loading tank at production scale (visual confirmation). Details: time after which complete dissolution could not be confirmed: dose or concentration left out as unconfirmed. Type of data set: physicochemical. The conditions noted are these: jacket 56°C. As to the method: In order to prevent the powder of gemcitabine hydrochloride having high pharmacological activity from being exposed to the operator, the following work was performed in an isolator that could completely isolate the work from the outside. […] In this case, the extension tube was closed by a pinch valve. 1,452 g of water for injection at room temperature was put into the plastic bag to wash the burette, and gemcitabine hydrochloride was dispersed. A tube extended from a sealed tank (hereinafter, a loading tank) made of SUS316L with a temperature control jacket installed outside the isolator and the plastic bag was connected, and the gemcitabine hydrochloride aqueous dispersion liquid was put into the loading tank. A solution consisting of 17.0 g of disodium hydrogen phosphate dihydrate, 2.7 g of sodium dihydrogen phosphate dihydrate, and 1,106.6 g of water for injection was put into the loading tank from the plastic bag to wash out the gemcitabine hydrochloride remaining in the plastic bag, the extension tube, and the like. By cutting the extension tube while pinching and crimping the extension tube, the gemcitabine hydrochloride of the highly pharmaceutically active substance could be safely put into the loading tank without scattering from the isolator or the loading tank. […]

Structures can show the parent of a compound that is named as a salt. Where only a bound is given, the exact number is not on record here.

For the compound `Nc1ccn([C@@H]2O[C@H](CO)[C@@H](O)C2(F)F)c(=O)n1` [gemcitabine hydrochloride, Gemcitabine hydrochloride], the solubility at 2 h in data set [1] (in the absence of sodium chloride, stirred at 55°C for 2 hours (imitating Example 1)) is 156 mg/mL; in data set [1] (in the presence of sodium chloride, stirred at 55°C for 2 hours (imitating Comparative Example 1)), 90 mg/mL. Moreover, the “time after which complete dissolution could not be confirmed” value in data set [2] (Comparative Example 1: sodium chloride present, 200 rpm, downward flow, sodium hydroxide added) is > 1 h. In data set [2] (Example 1: no sodium chloride, 305 g scale, liquid 54°C, 400 rpm, upward flow), the “time after the temperature rise until gemcitabine hydrochloride was completely dissolved” value is “about 15 minutes”.

Broadly, the solubility is the dissolved amount per volume that the medium holds.
